In US20070243273A1, “Reduction of the Deleterious Effects of Tobacco Smoking” (SaviPu Pharmaceuticals, priority 2006, published 2007):

Assays:
[1] = test system: benzo[a]pyrene-induced transformation of RTE cells; assay: rat tracheal epithelial (RTE) cell focus inhibition assay; type: cell-based
Protocol: (§1) The rat tracheal epithelial (RTE) cell focus inhibition assay was used to identify potential chemopreventive activity of tanshinone IIA. Tanshinone IIA was evaluated for its ability to inhibit benzo[a]pyrene-induced transformation of RTE cells. Tracheal epithelial cells were isolated from 8-12 week-old male Fisher 344 rats and plated on collagen coated dishes. Initially, a nontoxic concentration of tanshinone IIA was determined by treating RTE cells with a range of 1.5 nM to 3000 nM of tanshinone IIA. […] About 10% cells survived at a concentration of 1500 nM. Freshly isolated RTE cells were exposed to benzo[a]pyrene alone or in combination with tanshinone IIA. Benzo[a]pyrene was washed out after an exposure of 24 h. The maximal non-toxic concentration and four half log concentrations of tanshinone IIA (300 nM to 3 nM) were used for the chemopreventive assay. After 30 days in culture, transformed foci were scored and inhibition was quantitated. […] A positive control of retinoic acid inhibited the transformation frequency by 50% at 1 nM.

RTE cells = assay: toxicity of tanshinone IIA to RTE cells; type: cell-based, rat
Protocol: as §1

## Cc1coc2c1C(=O)C(=O)c1c-2ccc2c1CCCC2(C)C [Tanshinone IIA]
[1]; 3 nM
  prevention of benzo[a]pyrene-induced transformation of rat tracheal epithelial cells: totally prevented
[1]; each dose level, 300 nM to 3 nM, benzo[a]pyrene exposure 24 h, foci scored after 30 days in culture
  inhibition of transformation frequency: complete inhibition
RTE cells; 1500 nM
  cells survived: About 10%
RTE cells; tested range 1.5 nM to 3000 nM
  concentration found nontoxic to RTE cells: ≤ 150 nM
RTE cells; very low concentrations (3 nM)
  toxicity to the cells: nontoxic

## CC1=C(/C=C/C(C)=C/C=C/C(C)=C/C(=O)O)C(C)(C)CCC1 [retinoic acid, reference compound]
[1]; Rattus norvegicus, 1 nM, positive control, read-out: inhibition of transformation frequency
  inhibition at 0.001 µM: 50%
